We go through seven compounds from patent US4778797A, “Organo-silicon compounds, process for the manufacture of same, and anti-tumor agent comprising the compound” (Sanwa Kagaku Kenkyusho Co., Ltd., priority 1984, dated 1988).

One assay deals with KB cells. Kind of assay: Suppression of KB cell proliferation in vitro. It counts as cell-based. As to conditions: Homo sapiens, 72 h, 3 days exposure, Trypan Blue dye-exclusion, read-out: KB IC50 (50% inhibition density to tumor cell proliferation). The protocol:
In a cultivation device (5% CO2, 37° C.), KB cells (1×10^4 cells) were cultivated for 24 hours in a culture tube with 1 ml of Eagle culture medium added 10% ox serum, the used culture medium was thrown away to change with a fresh culture medium (0.9 ml), and then 0.1 ml of a similar culture fluid containing each testing compound prepared by the process as described in the Examples was added to cultivate the same for further 3 days. Thereafter, living cells were dyed with Tripan Blue and measured same through a dye-exclusion method.
A control was treated in a manner similar to the above, except that a culture fluid containing no compound of the invention was added.
50% inhibition density (IC50) to the tumor cell proliferation was decided through the tests between the testing group and the control group to obtain results as shown in following Table 1.

For the next assay, the system named is L-1210 leukemia. Kind of assay: Anti-tumor action to L-1210 leukemia. It counts as in vivo, BDF1 female mice. The note with it: Mus musculus, L1210, oral; for ILS at 250 mg/kg/day: 250 mg/kg/day × 3 (1st, 5th, 9th day); for ILS at 500 mg/kg/day: 500 mg/kg/day × 3 (1st, 5th, 9th day). The protocol: L-1210 leukemia cell (1×10^5 cells) was transplanted in a abdominal cavity of BDF1 female mice (20-21 g, age of about 5 weeks), and each of testing compounds was orally dosed in 250 mg/kg or 500 mg/kg at 1st, 5th and 9th day after the transplantation to check days of life of the mice. [formula]

In another assay the test system is Colon-38 carcinoma. Kind of assay: Anti-tumor action to Colon-38 carcinoma. The note with it: oral, tumor weight at 28th day. It counts as in vivo, BDF1 mice. The protocol: 0.02 ml of 10(W/V)% cell suspension prepared from a solid cancer cell (Colon-38 carcinoma) were transplanted under skin of BDF1 mice (20-21 g, age of about 5 weeks), and each of testing compounds was orally dosed to the mice at 1st, 5th and 9th day after the transplantation. A major and minor axes of the cancerous tumor were measured at 11th, 14th, 21st, 25th and 28th day after the transplantation to calcurate volume of the tumor in accordance with the following.
At 28th day from the transplantation, the mice were killed and each of the cancerous tumors was extracted to measure its weight and to determine an inhibitation ratio in comparison with a non-treated control group.

For a further assay, the system named is Lewis lung carcinoma. The assay can be described thus: Anti-tumor action to Lewis lung carcinoma (primary tumor weight and metastasis). The class given is in vivo, BDF1 mice. The note with it: Mus musculus, po, 504 h; for inhibition in vivo at 13.5 mg/kg/day: 13.5 mg/kg/day × 10 + Amputation. An excerpt:
Lewis lung carcinoma (1×10^5 cells) was transplanted under skin of right ear of BDF1 mice (age of about 5 weeks), and each of testing compounds was orally dosed 10 times from 1st to 10th day after the transplantation. At 21st day after the transplantation, the mice were killed to measure a weight of the primarly tumor and to extract a lung. The lung was fixed in a conventional manner to count a number of metastasis on cancerous cells with use of a stereomicroscope having a low magnification. An anti-tumor action of each compound was expressed with an inhibition in weight of the primarly tumor and an inhibition of the metastasis.

In the next assay the test system is B-16 melanoma. Kind of assay: Anti-tumor action to B-16 melanoma. The note with it: oral, tumor weight at 21st day. It counts as in vivo, BDF1 female mice. An excerpt: B-16 melanoma (1×10^5 cells) was transplanted under skin of BDF1 female mice (age of about 5 weeks), and each of testing compounds was orally dosed at 1st, 5th and 9th day after the transplantation. At 21st day after the transplantation, the mice were killed to measure a weight of the cancerous tumor and to finally determine an inhibition ratio.

The mark [1] stands for this setting: Mus musculus, B16, 504 h, 125 mg/kg/day × 3, read-out: B-16 melanoma Inhibition ratio.

SMILES strings stand for the structures. Converted amounts (≈) assume the structure as drawn. Like-named read-outs stand apart in the source and are kept apart here.

On to `C[Si](CCSCCNC(=O)n1cc(F)c(=O)[nH]c1=O)(c1ccccc1)c1ccccc1` [Example 7, 5-Fluoro-3,4-dihydro-N-[2-[[2-(methyldiphenylsilyl)ethyl]thio]ethyl]-2,4-dioxo-1(2H)-pyrimidinecarboxamide], for which the IC50 with KB cells came to 4 mg/L (≈ 8.74 µM). The ILS at 250 mg/kg/day is 11% with L-1210 leukemia (read-out: L-1210 ILS) and below 25% in the assay with L-1210 leukemia (read-out: L-1210 Judgement). In addition, the values for the ILS at 500 mg/kg/day with L-1210 leukemia (read-out: L-1210 ILS) and with L-1210 leukemia (read-out: L-1210 Judgement) were 11% and below 25%, respectively. Further, in the assay with Colon-38 carcinoma (Mus musculus, 672 h, 366 mg/kg/day × 3, read-out: colon-38 Inhibition ratio), the inhibition in vivo at 366 mg/kg/day is 32.2%. For the same compound, the inhibition in vivo at 34 mg/kg/day with Lewis lung carcinoma (34 mg/kg/day × 10, 21st day, read-out: Inhibition Ratio weight LLC) is 31%; in the assay on Lewis lung carcinoma (34 mg/kg/day × 10, lung, 21st day, read-out: Inhibition Ratio metastasis), 67.1%. Also, the inhibition in vivo at 68 mg/kg/day in the assay on Lewis lung carcinoma (68 mg/kg/day × 10, 21st day, read-out: Inhibition Ratio weight LLC) came out at 25%; in the assay with Lewis lung carcinoma (68 mg/kg/day × 10, lung, 21st day, read-out: Inhibition Ratio metastasis) it was 87.7%.

With `CCCC[Si](C)(C)CCSCCNC(=O)n1cc(F)c(=O)[nH]c1=O` [Example 6, N-[2-[[2-(Butyldimethylsilyl)ethyl]thio]ethyl]-5-fluoro-3,4-dihydro-2,4-dioxo-1(2H)-pyrimidinecarboxamide], the IC50 in the assay with KB cells amounted to 12 mg/L (≈ 32 µM). Besides, the ILS at 250 mg/kg/day was 35% in the assay on L-1210 leukemia (read-out: L-1210 ILS) and 25 to 50% with L-1210 leukemia (read-out: L-1210 Judgement). Further, the ILS at 500 mg/kg/day is 73% in the assay with L-1210 leukemia (read-out: L-1210 ILS) and 50 to 100% in the assay on L-1210 leukemia (read-out: L-1210 Judgement). Besides, the “colon-38 Inhibition ratio” value in the assay on Colon-38 carcinoma (300 mg/kg/day × 3) was 81.2%. Further, in the assay with B-16 melanoma (Mus musculus, B16, 504 h, 300 mg/kg/day × 3, read-out: B-16 melanoma Inhibition ratio), the inhibition in vivo at 300 mg/kg/day was determined as 53.5%. Moreover, the inhibition in vivo at 13.5 mg/kg/day was determined as 37.3% in the assay on Lewis lung carcinoma (21st day, read-out: Inhibition Ratio weight LLC) and 18.3% in the assay on Lewis lung carcinoma (lung, 21st day, printed in parentheses, read-out: Inhibition Ratio metastasis). The inhibition in vivo at 27 mg/kg/day with Lewis lung carcinoma (27 mg/kg/day × 10 + Amputation, 21st day, read-out: Inhibition Ratio weight LLC) was determined as 30.9%; in the assay on Lewis lung carcinoma (27 mg/kg/day × 10 + Amputation, lung, 21st day, printed in parentheses, read-out: Inhibition Ratio metastasis), 23.1%; with Lewis lung carcinoma (27 mg/kg/day × 10, 21st day, read-out: Inhibition Ratio weight LLC) it was 39.6%; in the assay with Lewis lung carcinoma (27 mg/kg/day × 10, lung, 21st day, read-out: Inhibition Ratio metastasis), 92.6%. The inhibition in vivo at 54 mg/kg/day was determined as 38% with Lewis lung carcinoma (54 mg/kg/day × 10, 21st day, read-out: Inhibition Ratio weight LLC) and 95.1% in the assay with Lewis lung carcinoma (54 mg/kg/day × 10, lung, 21st day, read-out: Inhibition Ratio metastasis).

As for `CCCCCCCC[Si](C)(C)CCSCCNC(=O)n1cc(F)c(=O)[nH]c1=O` [Example 4, N-[2-[[2-(Dimethyloctylsilyl)ethyl]thio]ethyl]-5-fluoro-3,4-dihydro-2,4-dioxo-1(2H)-pyrimidinecarboxamide], the IC50 with KB cells stood at 20 mg/L (≈ 46.3 µM). Also, the ILS at 250 mg/kg/day with L-1210 leukemia (read-out: L-1210 ILS) was 12%; in the assay with L-1210 leukemia (read-out: L-1210 Judgement) it was below 25%. Besides, the ILS at 500 mg/kg/day was 38% with L-1210 leukemia (read-out: L-1210 ILS) and 25 to 50% in the assay on L-1210 leukemia (read-out: L-1210 Judgement). In addition, the “colon-38 Inhibition ratio” value with Colon-38 carcinoma (345 mg/kg/day × 3) is on record as 80.0%. For the same compound, the inhibition in vivo at 32 mg/kg/day in the assay with Lewis lung carcinoma (32 mg/kg/day × 10, 21st day, read-out: Inhibition Ratio weight LLC) is 4.6%; in the assay with Lewis lung carcinoma (32 mg/kg/day × 10, lung, 21st day, read-out: Inhibition Ratio metastasis) it was 76.2%. Further, the inhibition in vivo at 64 mg/kg/day in the assay on Lewis lung carcinoma (64 mg/kg/day × 10, 21st day, read-out: Inhibition Ratio weight LLC) amounted to 18%; in the assay with Lewis lung carcinoma (64 mg/kg/day × 10, lung, 21st day, read-out: Inhibition Ratio metastasis), 97.5%.

On to `CC(C)[Si](C)(C)CCCSCCCNC(=O)n1cc(F)c(=O)[nH]c1=O` [Example 11, 5-Fluoro-3,4-dihydro-N-[3-[[3-(isopropyldimethylsilyl)propyl]thio]propyl]-2,4-dioxo-1(2H)-pyrimidinecarboxamide], for which the IC50 in the assay on KB cells worked out at 13 mg/L (≈ 33.4 µM). In addition, the ILS at 250 mg/kg/day with L-1210 leukemia (read-out: L-1210 ILS) was 18%; in the assay with L-1210 leukemia (read-out: L-1210 Judgement), below 25%. Besides, the ILS at 500 mg/kg/day in the assay on L-1210 leukemia (read-out: L-1210 ILS) was 81%; in the assay on L-1210 leukemia (read-out: L-1210 Judgement), 50 to 100%. Besides, in the assay on Colon-38 carcinoma (350 mg/kg/day × 3), the “colon-38 Inhibition ratio” value is given as 90.3%. For the same compound, the “B-16 melanoma Inhibition ratio” value stood at 32.8% in the assay with B-16 melanoma (125 mg/kg/day × 3) and 45.7% in the assay with B-16 melanoma (250 mg/kg/day × 3).

In the case of `CC(C)[Si](C)(C)CCCSCCNC(=O)n1cc(F)c(=O)[nH]c1=O` [Example 12, 5-Fluoro-3,4-dihydro-N-[2-[[3-(isopropyldimethylsilyl)propyl]thio]ethyl]-2,4-dioxo-1(2H)-pyrimidinecarboxamide], the IC50 with KB cells came to 15 mg/L (≈ 39.9 µM). In addition, the ILS at 250 mg/kg/day is 24% in the assay with L-1210 leukemia (read-out: L-1210 ILS) and below 25% in the assay with L-1210 leukemia (read-out: L-1210 Judgement). Also, the ILS at 500 mg/kg/day is 70% with L-1210 leukemia (read-out: L-1210 ILS) and 50 to 100% in the assay on L-1210 leukemia (read-out: L-1210 Judgement). For the same compound, the inhibition in vivo at 338 mg/kg/day in the assay on Colon-38 carcinoma (Mus musculus, 672 h, 338 mg/kg/day × 3, read-out: colon-38 Inhibition ratio) is 97.3%. For the same compound, the inhibition in vivo at 125 mg/kg/day in the assay on B-16 melanoma (setting [1]) stood at 34.2%. In addition, in the assay on B-16 melanoma (Mus musculus, B16, 504 h, 250 mg/kg/day × 3, read-out: B-16 melanoma Inhibition ratio), the inhibition in vivo at 250 mg/kg/day was determined as 37.9%.

As to `CC(C)[Si](C)(C)CCSCCCNC(=O)n1cc(F)c(=O)[nH]c1=O` [Example 9, 5-Fluoro-3,4-dihydro-N-[3-[[2-(isopropyldimethylsilyl)ethyl]thio]propyl]-2,4-dioxo-1(2H)-pyrimidinecarboxamide], the IC50 in the assay with KB cells stood at 15 mg/L (≈ 39.9 µM). Also, the ILS at 250 mg/kg/day is 45% with L-1210 leukemia (read-out: L-1210 ILS) and 25 to 50% in the assay with L-1210 leukemia (read-out: L-1210 Judgement). Besides, the ILS at 500 mg/kg/day in the assay on L-1210 leukemia (read-out: L-1210 ILS) is 80%; with L-1210 leukemia (read-out: L-1210 Judgement), 50 to 100%. Moreover, the “colon-38 Inhibition ratio” value with Colon-38 carcinoma (338 mg/kg/day × 3) turned out to be 98.4%. Further, the “B-16 melanoma Inhibition ratio” value in the assay on B-16 melanoma (125 mg/kg/day × 3) is reported as 17.6%; in the assay on B-16 melanoma (250 mg/kg/day × 3), 19.4%.

Turning to `CC(C)(C)[Si](C)(C)CCCSCCNC(=O)n1cc(F)c(=O)[nH]c1=O` [Example 13, N-[2-[[3-(t-Butyldimethylsilyl)propyl]thio]ethyl]-5-fluoro-3,4-dihydro-2,4-dioxo-1(2H)-pyrimidinecarboxamide], the IC50 with KB cells is 13 mg/L (≈ 33.4 µM). In addition, in the assay on L-1210 leukemia (read-out: L-1210 ILS), the ILS at 250 mg/kg/day worked out at 10% and the ILS at 500 mg/kg/day is 67%. In the assay on L-1210 leukemia (read-out: L-1210 Judgement), the ILS at 250 mg/kg/day is below 25% and the ILS at 500 mg/kg/day was 50 to 100%. Also, the “colon-38 Inhibition ratio” value with Colon-38 carcinoma (311 mg/kg/day × 3) is 81.0%. The inhibition in vivo at 125 mg/kg/day in the assay with B-16 melanoma (setting [1]) is 38%. Further, the “B-16 melanoma Inhibition ratio” value in the assay on B-16 melanoma (250 mg/kg/day × 3) was found to be 43.1%.
